Results from US8440645B2, “Ceramide production promoter” (Kao Corporation, priority 2008, dated 2013).
Structures can show the parent of a compound that is named as a salt.

What was measured:
[1] = system: Normal human epidermal keratinocytes (NHEK(F)); assay: Ceramide production promotion test (Test Example 3); type: cell-based; conditions: 5 mM solution added in an amount of 1%, 3 days culture
Description: Normal human epidermal keratinocytes (NHEK(F)) were seeded into an EpiLife-KG2 (KURABO INDUSTRIES LTD.) 6-well Plate and cultured until the cells became confluent. […] Culture was performed for 3 days, and the cells in each well were separately collected. Lipids were extracted from the collected cells by a Bligh and Dyer method. The extracts were dried with nitrogen, and the residues were redissolved in chloroform and methanol, to thereby prepare lipid samples. Note that the amounts of proteins were determined by the BCA method. The extracted lipids were subjected to horizontal development twice by using thin layer chromatography (TLC) and chloroform:methanol:acetic acid=190:9:1. The resultant were sprayed with a copper sulfate solution and heated on a hot plate, to thereby detect ceramide. Thereafter, the resultant values were divided by respective protein amounts to calculate amounts of ceramide.

[2] = system: Normal human epidermal keratinocytes (NHEK(F)); assay: Ceramide production promotion test (Test Example 1); type: cell-based; conditions: 3 days culture, control (10% ethanol) defined as 1
Description: Normal human epidermal keratinocytes (NHEK(F)) were seeded into an EpiLife-KG2 (KURABO INDUSTRIES LTD.) 6-well Plate and cultured until the cells became confluent. Thereafter, in replacement of EpiLife-KG2 (containing no proliferation addition factor), Compound 1 (5 mM) and Compound 2 (1 mM) prepared in Production Examples or a control solution (10% ethanol) was added thereto in an amount of 1%. Culture was performed for 3 days, and the cells in each well were separately collected.
Lipids were extracted from the collected cells by Bligh and Dyer method. The extracts were dried with nitrogen, and the residues were redissolved in chloroform and methanol, to thereby prepare lipid samples. Note that the amounts of proteins were determined by a BCA method.
The extracted lipids were subjected to horizontal development twice by using thin layer chromatography (TLC) and chloroform:methanol:acetic acid=190:9:1. The resultant was sprayed with a copper sulfate solution and heated on a hot plate, to thereby detect ceramide. Thereafter, the resultant values were divided by respective protein amounts to calculate amounts of ceramide. […] The numerical values shown in the table are relative values when the amount of ceramide in the control is defined as 1.

human horny layer = assay: Test on effect of improving moisture content in human horny layer (Test Example 2); type: in vivo; conditions: 1% Compound 1 solution applied to cheek twice a day, five days a week, 4 weeks; ten men; P<0.1 t-test
Description: Ten men (25 to 40-year-old: mean age 30.5)
A solution containing 1% Compound 1 and a placebo solution containing only a solvent were used as application samples. The solvent used was 95.0% ethanol:1,3-BG:purified water=20:10:70.
The samples were applied twice a day and five days a week. The amount of each sample per application was set to two drops (about 100 μl) from an eye drop bottle.
The test was performed by applying the sample containing 1% Compound 1 to one side of the cheek and the placebo solution to the other side for 4 weeks, followed by measuring moisture contents in the horny layer using a Corneometer. The measurement was performed before the application and after the 4-week application at the same regions on the cheek, and the result of the 1% Compound 1-containing sample side was compared with that of the placebo side.

[3] = control (10% ethanol) defined as 1
[4] = control (50% ethanol) defined as 1

Molecule | Amount of ceramide (relative value) [1, 3] | also measured
CCCCCC(C)CCCCCCCCCCCOCC(O)COP(=O)([O-])[O-].[K+].[K+] (centres unmarked) [Compound 8, 1-(12-Methylheptadecyl)glycerol-3-phosphate dipotassium salt] | 10.4 | 
monoalkyl (having an average alkyl chain length of C13) phosphate potassium salt [Comparative Compound 1, reference compound] |  | Amount of ceramide (relative value) [1, 4]: 0.6
CCCCCCCCCCC(CCCCCCCC)COCC(O)COP(=O)(O)O (centres unmarked) [Compound 9, 1-(2-Octyldodecyl)glycerol-3-phosphate monoarginine salt] | 4.1 | 
CCCCOCC(COCCCCCCCCCCCCCCCC(C)C)OP(=O)([O-])[O-].[Na+].[Na+] (centres unmarked) [Compound 2, 1-isostearyl-3-butylglycerol-2-phosphate sodium salt] |  | Amount of ceramide (relative value) ([2]; 1 mM solution added in an amount of 1%): 1.5
CCCCCCCCCCCCCCOCC(O)COP(=O)(O)O (centres unmarked) [Compound 4, 1-Tetradecylglycerol-3-phosphate monoarginine salt] | 4.3 | 
1-Isostearylglycerol-3-phosphate monoarginine salt [Compound 7] | 18.9 | 
CCCCCCCCCC(CCCCCCC)COCC(O)COP(=O)(O)O (centres unmarked) [Compound 6, 1-(2-Heptylundecyl)glycerol-3-phosphate monoarginine salt] | 4.0 | 
CCCCCCCCCCCCOCC(O)COP(=O)([O-])[O-].[Na+].[Na+] (centres unmarked) [Compound 3, 1-Dodecylglycerol-3-phosphate disodium salt] | 3.1 | 
1-n-tetradecyl-3-ethylglycerol-2-phosphate arginine salt [Compound 1] |  | Moisture content in the horny layer (Corneometer) compared with placebo-applied side (human horny layer): increase; Amount of ceramide (relative value) ([2]; 5 mM solution added in an amount of 1%): 3.3
CCCCCCCCCCCCCCCCCCOCC(O)COP(=O)([O-])[O-].[Na+].[Na+] (centres unmarked) [Compound 5, 1-Octadecylglycerol-3-phosphate disodium salt] |  | Amount of ceramide (relative value) [1, 4]: 2.6
